The text below walks through data of US11827646B2, “Compounds for treating spinal muscular atrophy” (Hoffmann-La Roche Inc., priority 2014, dated 2023).

The subject of assay [1] is SMN protein in SMA patient fibroblast cells (GM03813). Nature of the assay: SMN protein assay in cultured cells (SMN HTRF). In kind it is cell-based. The settings on record: Homo sapiens, SMA Type 1 patient fibroblasts, 48 hours; for EC (1.5-fold): 7-point concentration curve, 1.5 times SMN protein vs vehicle, read-out: EC1.5x SMN protein (EC1.5x concentration for SMN protein expression); for maximal fold induction: fold increase relative to vehicle control, read-out: max. fold increase of SMN protein. The source says:
The term “EC1.5x concentration for SMN protein expression” (or “EC1.5x SMN protein”) is defined as that concentration of test compound that is effective in producing 1.5 times the amount of SMN protein in an SMA patient fibroblast cell compared to the amount produced from the vehicle control.
The SMN HTRF (homogeneous time resolved fluorescence) assay is used to quantify the level of SMN protein in SMA patient fibroblast cells treated with test compounds. Materials used and respective sources are listed below in Table 4.
Cells are thawed and cultured in DMEM-10% FBS for 72 hours. Cells are trypsinized, counted and re-suspended to a concentration of 25,000 cells/mL in DMEM-10% FBS. The cell suspensions are plated at 5,000 cells per well in a 96 well microtiter plate and incubated for 3 to […]. Test compounds are serially diluted 3.16-fold in 100% DMSO to generate a 7-point concentration curve. 1 μL of test compound solution is transferred to cell-containing wells and cells are incubated for 48 hours in a cell culture incubator (37° C., 5% CO2, […]). Triplicate samples are set up for each test compound concentration. After 48 hours, the supernatant is removed from the wells and 25 μL of the RIPA lysis buffer, containing protease inhibitors, is added to the wells and incubated with shaking at room temperature for 1 hour. 25 μL of the diluent is added and then 35 μL of the resulting lysate is transferred to a 384-well plate, where each well contains 5 μL of the antibody solution (1:100 dilution of anti-SMN d2 and anti-SMN kryptate in SMN reconstitution buffer). The plate is centrifuged for 1 minute to bring the solution to the bottom of the wells, then incubated overnight at room temperature. Fluorescence for each well of the plate at 665 nm and 620 nm is measured on an EnVision multilabel plate reader (Perkin-Elmer).
The normalized fluorescence signal is calculated for each sample, Blank and vehicle control well by dividing the signal at 665 nm by the signal at 620 nm. Normalizing the signal accounts for possible fluorescence quenching due to the matrix effect of the lysate. The ΔF value (a measurement of SMN protein abundance as a percent value) for each sample well is calculated by subtracting the normalized average fluorescence for the Blank control wells from the normalized fluorescence for each sample well, then dividing this difference by the normalized average fluorescence for the Blank control wells and multiplying the resulting value by 100. The ΔF value for each sample well represents the SMN protein abundance from test compound-treated samples. The ΔF value for each sample well is divided by the ΔF value for the vehicle control wells to calculate the fold increase in SMN protein abundance relative to the vehicle control. Table 5 provides EC1.5x concentrations for SMN protein expression that was obtained from the 7-point concentration data generated according to the above procedure for particular compounds of the present invention.
Table 6 provides the maximum fold increase of SMN protein that was obtained from the 7-point concentration data generated according to the above procedure for particular compounds of the present invention

Assay [2] concerns full length SMN2 minigene mRNA (HEK293H cells stably transfected with SMN2-A minigene). Nature of the assay: SMN2 minigene mRNA splicing RT-qPCR assay in cultured cells. In kind it is cell-based. The settings on record: Homo sapiens, HEK293-H, 24 hours, 7-point concentration curve, 1.5-fold increase relative to vehicle, read-out: EC1.5x minigene (EC1.5x concentration for production of full length SMN2 minigene mRNA). The text has this:
The term “EC1.5x concentration for production of full length SMN2 minigene mRNA” (or “EC1.5x minigene”) is defined as that concentration of test compound that 1 s effective m increasing the amount of full length SMN2 minigene mRNA to a level 1.5-fold greater relative to that in vehicle-treated cells.
The reverse transcription-quantitative PCR-based (RT-qPCR) assay is used to quantify the level of the full length SMN2 minigene (referred to herein by the term “FL SMN2mini”) mRNA containing SMN2 exon 7 in a HEK293H cell line stably transfected with said minigene and treated with a test compound. Materials used and respective sources are listed below in Table 1.
The SMN2-A minigene construct was prepared as described in International Patent Application WO2009/151546A1 page 145 paragraph [00400] to page 147 paragraph [00412](incl. FIG. 1 and FIG. 3 therein).
HEK293H cells stably transfected with the SMN2-A minigene construct (10,000 cells/well) are seeded in 200 μL of cell culture medium (DMEM plus 10% FBS, with 200 μg/mL hygromycin) in 96-well flat-bottom plates and the plate is immediately swirled to ensure proper dispersal of cells and the formation of an even monolayer of cells. Cells are allowed to attach for 6 hours. Test compounds are serially diluted 3.16-fold in 100% DMSO to generate a 7-point concentration curve. A solution of test compound (1 μL, 200× in DMSO) is added to each cell-containing well and the plate is incubated for 24 hours in a cell culture incubator (37° C., 5% CO2, 100% relative humidity). 2 replicates are prepared for each test compound concentration. The cells are then lysed in the Cells-To-Ct lysis buffer and the lysate is stored at −80° C.
Full length SMN2-A minigene and GAPDH mRNA are quantified using the primers and probes referenced in Table 2. Primer SMN Forward A (SEQ ID NO.1) hybridizes to a nucleotide sequence in exon 7 (nucleotide 22 to nucleotide 40), primer SMN Reverse A (SEQ ID NO.2) hybridizes to a nucleotide sequence in the coding sequence of Firefly luciferase, SMN Probe A (SEQ ID NO.3) hybridizes to a nucleotide sequence in exon 7 (nucleotide 50 to nucleotide 54) and exon 8 (nucleotide 1 to nucleotide 21). The combination of these three oligonucleotides detects only SMN1 or SMN2 minigenes (RT-qPCR) and will not detect endogenous SMN1 or SMN2 genes.
The SMN forward and reverse primers are used at final concentrations of 0.4 μM. The SMN probe is used at a final concentration of 0.15 μM. The GAPDH primers are used at final concentrations of 0.2 μM and the probe at 0.15 μM.
The SMN2-minigene GAPDH mix (15 μL total volume) is prepared by combining 7.5 μL of 2×RT-PCR buffer, 0.4 μL of 25×RT-PCR enzyme mix, 0.75 μL of 20×GAPDH primer-probe mix, 4.0075 μL of water, 2 μL of 10-fold diluted cell lysate, 0.06 μL of 100 µM SMN forward primer, 0.06 μL of 100 μM SMN reverse primer, and 0.225 μL of 100 μM SMN probe.
PCR is carried out at the following temperatures for the indicated time: Step 1: 48° C. (15 min); Step 2: 95° C. (10 min); Step 3: 95° C. (15 sec); Step 4: 60° C. (1 min); then repeat Steps 3 and 4 for a total of 40 cycles.
Each reaction mixture contains both SMN2-A minigene and GAPDH primers/probe sets (multiplex design), allowing simultaneous measurement of the levels of two transcripts.
The increase in the abundance of the FL SMN2mini mRNA relative to that in cells treated with vehicle control is determined from real-time PCR data using a modified ΔΔCt method (as described in Livak and Schmittgen, Methods, 2001, 25:402-8). The amplification efficiency E is calculated from the slope of the amplification curve for FL SMN2mini and GAPDH individually. The abundance of FL SMN2mini and GAPDH mRNA are then calculated as (1+E)^−Ct, where Ct is the threshold value for each amplicon. The abundance of FL SMN2mini mRNA is normalized to GAPDH mRNA abundance. […]

Take `Cc1cn2nc(-c3cc(=O)n4cc(N5CCCNCC5)ccc4n3)cc(C)c2n1` [Example 10, 7-(1,4-diazepan-1-yl)-2-(2,8-dimethylimidazo[1,2-b]pyridazin-6-yl)pyrido[1,2-a]pyrimidin-4-one]: in assay [1], the EC (1.5-fold) came to 0.0228 µM and the maximal fold induction amounted to 1.95. Also, the EC (1.5-fold) in assay [2] was 0.0064 µM.

`Cc1cn2nc(-c3cc(=O)n4cc(N5CCN[C@@H](C)C5)ccc4n3)ccc2n1` [Example 11, 2-(2-methylimidazo[1,2-b]pyridazin-6-yl)-7-[(3S)-3-methylpiperazin-1-yl]pyrido[1,2-a]pyrimidin-4-one]: in assay [1], the EC (1.5-fold) turned out to be 0.007 µM and the maximal fold induction is 1.9. The EC (1.5-fold) in assay [2] is 0.0014 µM.

In the case of `Cc1cn2nc(-c3cc(=O)n4cc(N5CCN[C@H](C)C5)ccc4n3)ccc2n1` [Example 12, 2-(2-methylimidazo[1,2-b]pyridazin-6-yl)-7-[(3R)-3-methylpiperazin-1-yl]pyrido[1,2-a]pyrimidin-4-one], in assay [1], the EC (1.5-fold) was found to be 0.0075 µM and the maximal fold induction was determined as 1.77. Also, the EC (1.5-fold) in assay [2] was found to be 0.0012 µM.

With `Cc1cn2nc(-c3cc(=O)n4cc(N5CCCNCC5)ccc4n3)ccc2n1` [Example 13, 7-(1,4-diazepan-1-yl)-2-(2-methylimidazo[1,2-b]pyridazin-6-yl)pyrido[1,2-a]pyrimidin-4-one], the EC (1.5-fold) in assay [1] came to 0.003 µM; in assay [2], 0.005 µM. The maximal fold induction in assay [1] is 1.91.

`Cc1cn2nc(-c3cc(=O)n4cc(N5C[C@@H](C)N[C@@H](C)C5)ccc4n3)ccc2n1` [Example 14, 7-[(3R,5S)-3,5-dimethylpiperazin-1-yl]-2-(2-methylimidazo[1,2-b]pyridazin-6-yl)pyrido[1,2-a]pyrimidin-4-one]: in assay [1], the EC (1.5-fold) turned out to be 0.0176 µM and the maximal fold induction was 1.86. In assay [2], the EC (1.5-fold) was found to be 0.0041 µM.

Turning to `Cc1cn2nc(-c3cc(=O)n4cc(N5CCN6CCC[C@H]6C5)ccc4n3)ccc2n1` [Example 15, 7-[(8aS)-3,4,6,7,8,8a-hexahydro-1H-pyrrolo[1,2-a]pyrazin-2-yl]-2-(2-methylimidazo[1,2-b]pyridazin-6-yl)pyrido[1,2-a]pyrimidin-4-one], in assay [1], the EC (1.5-fold) was 0.0212 µM and the maximal fold induction is 1.94. Moreover, the EC (1.5-fold) in assay [2] came out at 0.004 µM.

With `Cc1cn2nc(-c3cc(=O)n4cc(N5CCN6CCC[C@@]6(C)C5)ccc4n3)ccc2n1` [Example 16, 7-[(8aS)-8a-methyl-1,3,4,6,7,8-hexahydropyrrolo[1,2-a]pyrazin-2-yl]-2-(2-methylimidazo[1,2-b]pyridazin-6-yl)pyrido[1,2-a]pyrimidin-4-one], the EC (1.5-fold) in assay [1] was 0.003 µM; in assay [2] it was 0.0011 µM. For the same molecule, the maximal fold induction in assay [1] turned out to be 1.83.

Take `Cc1cn2nc(-c3cc(=O)n4cc(N5CCN6CCC[C@]6(C)C5)ccc4n3)ccc2n1` [Example 17, 7-[(8aR)-8a-methyl-1,3,4,6,7,8-hexahydropyrrolo[1,2-a]pyrazin-2-yl]-2-(2-methylimidazo[1,2-b]pyridazin-6-yl)pyrido[1,2-a]pyrimidin-4-one]: in assay [1], the EC (1.5-fold) was 0.0202 µM and the maximal fold induction was 1.98. In addition, the EC (1.5-fold) in assay [2] came to 0.0064 µM.

Turning to `Cc1cn2nc(-c3cc(=O)n4cc(N5CC[C@@H](N6CCCC6)C5)ccc4n3)cc(C)c2n1` [Example 18, 2-(2,8-dimethylimidazo[1,2-b]pyridazin-6-yl)-7-[(3R)-3-pyrrolidin-1-ylpyrrolidin-1-yl]pyrido[1,2-a]pyrimidin-4-one], in assay [1], the EC (1.5-fold) was found to be 0.025 µM and the maximal fold induction was 1.75. Besides, the EC (1.5-fold) in assay [2] is 0.0036 µM.

Consider `Cc1cn2nc(-c3cc(=O)n4cc(N5CCNC6(CC6)C5)ccc4n3)cc(C)c2n1` [Example 20, 7-(4,7-diazaspiro[2.5]octan-7-yl)-2-(2,8-dimethylimidazo[1,2-b]pyridazin-6-yl)pyrido[1,2-a]pyrimidin-4-one], for which, in assay [1], the EC (1.5-fold) came out at 0.037 µM and the maximal fold induction worked out at 1.72. For the same molecule, the EC (1.5-fold) in assay [2] was found to be 0.0043 µM.

As to `Cc1cn2nc(-c3cc(=O)n4cc(N5CC[C@@H](N6CCCC6)C5)ccc4n3)ccc2n1` [Example 21, 2-(2-methylimidazo[1,2-b]pyridazin-6-yl)-7-[(3R)-3-pyrrolidin-1-ylpyrrolidin-1-yl]pyrido[1,2-a]pyrimidin-4-one], in assay [1], the EC (1.5-fold) stood at 0.0687 µM and the maximal fold induction worked out at 1.54. Moreover, in assay [2], the EC (1.5-fold) turned out to be 0.0096 µM.

For `Cc1cn2nc(-c3cc(=O)n4cc(N5CCNC(C)(C)C5)ccc4n3)cc(C)c2n1` [Example 22, 2-(2,8-dimethylimidazo[1,2-b]pyridazin-6-yl)-7-(3,3-dimethylpiperazin-1-yl)pyrido[1,2-a]pyrimidin-4-one], in assay [1], the EC (1.5-fold) came to 0.0138 µM and the maximal fold induction was 1.69. In addition, the EC (1.5-fold) in assay [2] amounted to 0.0009 µM.
